In the experiment the target is T1, HCMV core nuclear egress complex (core NEC), pUL50-pUL53 (Human herpesvirus 5 strain AD169, UniProt P16791+P16794).
T1 construct: gene NEC2; pUL50 His-tagged, pUL53 coated on plate; heterodimer
Put plainly: ELISA-type pUL50-pUL53 interaction inhibition assay, anti-His-HRP detection. The experiment is classed as binding. (ELISA stands for enzyme-linked immunosorbent assay.)

One molecule from publication PMC7998563 (Viruses, 2021) can be followed below.

T1 sequence (P16791 1-181): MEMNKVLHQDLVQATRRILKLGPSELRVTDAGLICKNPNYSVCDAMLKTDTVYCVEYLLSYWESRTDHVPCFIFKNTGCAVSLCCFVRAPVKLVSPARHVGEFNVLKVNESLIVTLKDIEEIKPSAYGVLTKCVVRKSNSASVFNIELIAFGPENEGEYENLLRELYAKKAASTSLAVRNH
T1 sequence (P16794 50-292): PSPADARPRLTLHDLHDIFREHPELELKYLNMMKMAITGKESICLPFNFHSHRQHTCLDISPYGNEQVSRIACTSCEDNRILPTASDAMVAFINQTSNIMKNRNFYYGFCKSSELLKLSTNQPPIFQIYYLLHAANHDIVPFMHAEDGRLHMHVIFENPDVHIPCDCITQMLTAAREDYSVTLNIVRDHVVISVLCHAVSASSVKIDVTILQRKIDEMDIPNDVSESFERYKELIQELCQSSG

For `O=C(O)c1ccccc1-c1c2cc(Br)c(=O)[c]([Hg+])c-2oc2cc(O)c(Br)cc12` [P10G08, merbromin], the IC50 is 38 nM.

One may read the IC50 as the concentration needed to halve the response being measured. Low values mean inhibition by little substance, high ones a need for much substance.
